Laboratory results from patent publication US6737383B1, “Herbicidal oxadiazolidines” (priority 1999, dated 2004).

How the values were obtained:
Green foxtail [1] = assay: Test D green foxtail; format: in vivo
Outline: (§1)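 Herbicide screen in the greenhouse. A non-phytotoxic solvent mixture with surfactant carried the test chemical; in pre-emergence tests it went onto the soil of pots seeded no more than a day earlier. Injury was scored by eye 14 to 21 days after application, 0 to 100.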

goosegrass = assay: Test D goosegrass; format: in vivo, Eleusine indica; conditions: Preemergence, 0 to 100 scale
Outline: as §1

dallisgrass = assay: Test D dallisgrass; format: in vivo, Paspalum dilatatum; conditions: Preemergence, 0 to 100 scale
Outline: as §1

Green foxtail [2] = assay: Test D green foxtail; format: in vivo; conditions: Preemergence, 0 to 100 scale
Outline: as §1

common ragweed = assay: Test D common ragweed; format: in vivo, Ambrosia elatior; conditions: Preemergence, 0 to 100 scale
Outline: as §1

bermuda-grass = assay: Test D bermudagrass; format: in vivo, Cynodon dactylon; conditions: Preemergence, 0 to 100 scale
Outline: as §1

pitted morningglory = assay: Test D pitted morningglory; format: in vivo, Ipomoea lacunosa; conditions: Preemergence, 0 to 100 scale
Outline: as §1

tall mallow = assay: Test D tall mallow; format: in vivo, Malva sylvestris; conditions: Preemergence, 0 to 100 scale
Outline: as §1

Johnson grass = assay: Test D Johnson grass; format: in vivo, Sorghum halepense; conditions: Preemergence, 0 to 100 scale
Outline: as §1

common groundsel = assay: Test D common groundsel; format: in vivo, Senecio vulgaris; conditions: Preemergence, 0 to 100 scale
Outline: as §1

surinam grass = assay: Test D surinam grass; format: in vivo, Brachiaria decumbens; conditions: Preemergence, 0 to 100 scale
Outline: as §1

purple nutsedge = assay: Test D purple nutsedge; format: in vivo, Cyperus rotundus; conditions: Preemergence, 0 to 100 scale
Outline: as §1

Alexandergrass = assay: Test D Alexandergrass; format: in vivo, Brachiaria plantaginea; conditions: Preemergence, 0 to 100 scale
Outline: as §1

itchgrass = assay: Test D itchgrass; format: in vivo, Rottboellia exaltata; conditions: Preemergence, 0 to 100 scale
Outline: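 Scoring used a 0–100 visual injury scale, with 0 meaning no effect and 100 complete control, assessed 14–21 days after application alongside untreated pots. Preemergence treatments went onto sandy loam surfaces of separately potted seeds within a day of sowing.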

guineagrass = assay: Test D guineagrass; format: in vivo, Panicum maximum; conditions: Preemergence, 0 to 100 scale
Outline: as §1

[3] = Rate 64 g/ha, Preemergence; 0 to 100 scale, 0 no injury, 100 complete control
[4] = Rate 125 g/ha, Preemergence; 0 to 100 scale, 0 no injury, 100 complete control
[5] = Rate 250 g/ha; Preemergence; 0 to 100 scale
[6] = Rate 500 g/ha, Preemergence; 0 to 100 scale
[7] = Rate 16 g/ha, 0 no injury, 100 complete control
[8] = Rate 32 g/ha, 0 no injury, 100 complete control
[9] = Rate 64 g/ha, 0 no injury, 100 complete control
[10] = Rate 125 g/ha, 0 no injury, 100 complete control

CCn1c(=O)on(C(=O)N(c2ccc(Cl)cc2)C(C)C)c1=O [Compound 108]
Plant response rating, Green foxtail (Green foxtail [1]; Preemergence; Rate 16 g/ha; 0 to 100 scale, 0 no injury, 100 complete control): 40
Plant response rating, Green foxtail (Green foxtail [1]; Preemergence; Rate 32 g/ha; 0 to 100 scale, 0 no injury, 100 complete control): 100
Plant response rating, Green foxtail (Green foxtail [1]; Rate 16 g/ha; Preemergence; 0 to 100 scale, 0 no injury, 100 complete control): 40
Plant response rating, Green foxtail (Green foxtail [1]; Rate 32 g/ha; Preemergence; 0 to 100 scale, 0 no injury, 100 complete control): 100
Green foxtail plant response rating (Green foxtail [1]; [3]): 100
Plant response rating, Green foxtail (Green foxtail [1]; [3]): 100
Green foxtail plant response rating (Green foxtail [1]; [4]): 100
Plant response rating, Green foxtail (Green foxtail [1]; [4]): 100
Plant response rating, Green foxtail (Green foxtail [1]; [5]): 100
Plant response rating, Green foxtail (Green foxtail [1]; [6]): 100
Plant response rating, Goosegrass (goosegrass; [7]): 60
Plant response rating, Goosegrass (goosegrass; [8]): 85
Plant response rating, Goosegrass (goosegrass; [9]): 98
Plant response rating, Goosegrass (goosegrass; [10]): 100
Plant response rating, Goosegrass (goosegrass; Rate 250 g/ha): 100
Plant response rating, Goosegrass (goosegrass; Rate 500 g/ha): 100
Plant response rating, Dallisgrass (dallisgrass; [7]): 40
Plant response rating, Dallisgrass (dallisgrass; [8]): 50
Plant response rating, Dallisgrass (dallisgrass; [9]): 100
Plant response rating, Dallisgrass (dallisgrass; [10]): 100
Plant response rating, Dallisgrass (dallisgrass; Rate 250 g/ha): 100
Plant response rating, Dallisgrass (dallisgrass; Rate 500 g/ha): 100
Plant response rating, Green foxtail (Green foxtail [2]; Rate 250 g/ha): 100
Plant response rating, Green foxtail (Green foxtail [2]; Rate 500 g/ha): 100
Plant response rating, C. ragweed (common ragweed; [7]): 0
Plant response rating, C. ragweed (common ragweed; [8]): 0
Plant response rating, C. ragweed (common ragweed; [9]): 0
Plant response rating, C. ragweed (common ragweed; [10]): 0
Plant response rating, C. ragweed (common ragweed; Rate 250 g/ha): 0
Plant response rating, C. ragweed (common ragweed; Rate 500 g/ha): 80
Plant response rating, Bermudagrass (bermuda-grass; [7]): 85
Plant response rating, Bermudagrass (bermuda-grass; [8]): 98
Plant response rating, Bermudagrass (bermuda-grass; [9]): 100
Plant response rating, Bermudagrass (bermuda-grass; [10]): 100
Plant response rating, Bermudagrass (bermuda-grass; Rate 250 g/ha): 100
Plant response rating, Bermudagrass (bermuda-grass; Rate 500 g/ha): 100
Plant response rating, P. morninglory (pitted morningglory; [7]): 0
Plant response rating, P. morninglory (pitted morningglory; [8]): 0
Plant response rating, P. morninglory (pitted morningglory; [9]): 0
Plant response rating, P. morninglory (pitted morningglory; [10]): 0
Plant response rating, P. morninglory (pitted morningglory; Rate 250 g/ha): 0
Plant response rating, P. morninglory (pitted morningglory; Rate 500 g/ha): 0
Plant response rating, Tall Mallow (tall mallow; [7]): 0
Plant response rating, Tall Mallow (tall mallow; [8]): 0
Tall Mallow plant response rating (tall mallow; [9]): 0
Tall Mallow plant response rating (tall mallow; [10]): 10
Plant response rating, Tall Mallow (tall mallow; Rate 250 g/ha): 45
Plant response rating, Tall Mallow (tall mallow; Rate 500 g/ha): 98
Plant response rating, Johnsongrass (Johnson grass; [7]): 0
Plant response rating, Johnsongrass (Johnson grass; [8]): 20
Plant response rating, Johnsongrass (Johnson grass; [9]): 20
Plant response rating, Johnsongrass (Johnson grass; [10]): 40
Plant response rating, Johnsongrass (Johnson grass; Rate 250 g/ha): 85
Plant response rating, Johnsongrass (Johnson grass; Rate 500 g/ha): 85
Plant response rating, Com. groundsel (common groundsel; [7]): 65
Plant response rating, Com. groundsel (common groundsel; [8]): 75
Plant response rating, Com. groundsel (common groundsel; [9]): 85
Plant response rating, Com. groundsel (common groundsel; [10]): 100
Plant response rating, Com. groundsel (common groundsel; Rate 250 g/ha): 100
Plant response rating, Com. groundsel (common groundsel; Rate 500 g/ha): 100
Plant response rating, Surinam grass (surinam grass; [7]): 0
Plant response rating, Surinam grass (surinam grass; [8]): 65
Surinam grass plant response rating (surinam grass; [9]): 65
Surinam grass plant response rating (surinam grass; [10]): 98
Plant response rating, Surinam grass (surinam grass; Rate 250 g/ha): 98
Plant response rating, Surinam grass (surinam grass; Rate 500 g/ha): 100
Plant response rating, Purple nutsedge (purple nutsedge; [7]): 0
Plant response rating, Purple nutsedge (purple nutsedge; [8]): 0
Purple nutsedge plant response rating (purple nutsedge; [9]): 0
Purple nutsedge plant response rating (purple nutsedge; [10]): 10
Plant response rating, Purple nutsedge (purple nutsedge; Rate 250 g/ha): 10
Plant response rating, Purple nutsedge (purple nutsedge; Rate 500 g/ha): 30
Plant response rating, Alexandergrass (Alexandergrass; [7]): 20
Plant response rating, Alexandergrass (Alexandergrass; [8]): 20
Plant response rating, Alexandergrass (Alexandergrass; [9]): 85
Plant response rating, Alexandergrass (Alexandergrass; [10]): 98
Plant response rating, Alexandergrass (Alexandergrass; Rate 250 g/ha): 100
Plant response rating, Alexandergrass (Alexandergrass; Rate 500 g/ha): 100
Plant response rating, Itchgrass (itchgrass; [7]): 0
Plant response rating, Itchgrass (itchgrass; [8]): 20
Plant response rating, Itchgrass (itchgrass; [9]): 30
Plant response rating, Itchgrass (itchgrass; [10]): 40
Plant response rating, Itchgrass (itchgrass; Rate 250 g/ha): 98
Plant response rating, Itchgrass (itchgrass; Rate 500 g/ha): 100
Plant response rating, Guineagrass (guineagrass; [7]): 0
Plant response rating, Guineagrass (guineagrass; [8]): 85
Plant response rating, Guineagrass (guineagrass; [9]): 98
Plant response rating, Guineagrass (guineagrass; [10]): 98
Plant response rating, Guineagrass (guineagrass; Rate 250 g/ha): 100
Plant response rating, Guineagrass (guineagrass; Rate 500 g/ha): 100

CC(C)N(C(=O)n1oc(=O)n(C2CCCCC2)c1=O)c1ccc(F)cc1 [Compound 110]
Plant response rating, Green foxtail (Green foxtail [1]; [5]): 100
Plant response rating, Green foxtail (Green foxtail [1]; [6]): 100
Plant response rating, Goosegrass (goosegrass; Rate 250 g/ha): 100
Plant response rating, Goosegrass (goosegrass; Rate 500 g/ha): 100
Plant response rating, Dallisgrass (dallisgrass; Rate 250 g/ha): 100
Plant response rating, Dallisgrass (dallisgrass; Rate 500 g/ha): 100
Plant response rating, Green foxtail (Green foxtail [2]; Rate 250 g/ha): 100
Plant response rating, Green foxtail (Green foxtail [2]; Rate 500 g/ha): 100
Plant response rating, C. ragweed (common ragweed; Rate 250 g/ha): 0
Plant response rating, C. ragweed (common ragweed; Rate 500 g/ha): 0
Plant response rating, Bermudagrass (bermuda-grass; Rate 250 g/ha): 100
Plant response rating, Bermudagrass (bermuda-grass; Rate 500 g/ha): 100
Plant response rating, P. morninglory (pitted morningglory; Rate 250 g/ha): 0
Plant response rating, P. morninglory (pitted morningglory; Rate 500 g/ha): 0
Plant response rating, Tall Mallow (tall mallow; Rate 250 g/ha): 0
Plant response rating, Tall Mallow (tall mallow; Rate 500 g/ha): 0
Plant response rating, Johnsongrass (Johnson grass; Rate 250 g/ha): 20
Plant response rating, Johnsongrass (Johnson grass; Rate 500 g/ha): 45
Plant response rating, Com. groundsel (common groundsel; Rate 250 g/ha): 20
Plant response rating, Com. groundsel (common groundsel; Rate 500 g/ha): 20
Plant response rating, Surinam grass (surinam grass; Rate 250 g/ha): 70
Plant response rating, Surinam grass (surinam grass; Rate 500 g/ha): 85
Plant response rating, Purple nutsedge (purple nutsedge; Rate 250 g/ha): 0
Plant response rating, Purple nutsedge (purple nutsedge; Rate 500 g/ha): 0
Plant response rating, Alexandergrass (Alexandergrass; Rate 250 g/ha): 100
Plant response rating, Alexandergrass (Alexandergrass; Rate 500 g/ha): 100
Plant response rating, Itchgrass (itchgrass; Rate 250 g/ha): 40
Plant response rating, Itchgrass (itchgrass; Rate 500 g/ha): 40
Plant response rating, Guineagrass (guineagrass; Rate 250 g/ha): 100
Plant response rating, Guineagrass (guineagrass; Rate 500 g/ha): 100
